test system: HCV replicon I389luc-ubi-neo/NS3-3′/ET in ET (Huh-lucubineo-ET) cell line; assay: Replicon assay (luciferase reporter); assay type: cell-based; details: Hepatitis C virus; tested at 33 μM; ET (Huh-lucubineo-ET) replicon cells, luciferase activity, relative to no compound control; read-out: % inhibition of replication
Experimental: A cell line, ET (Huh-lucubineo-ET) was used for screening of compounds of the present invention for HCV RNA dependent RNA polymerase. The ET cell line was stably transfected with RNA transcripts harboring a I389luc-ubi-neo/NS3-3′/ET; replicon with firefly luciferase-ubiquitin-neomycin phosphotransferase fusion protein and EMCV-IRES driven NS3-5B polyprotein containing the cell culture adaptive mutations (E1202G; T1280I; K1846T) (Krieger at al, 2001 and unpublished). The ET cells were grown in DMEM, supplemented with 10% fetal calf serum, 2 mM Glutamine, Penicillin (100 IU/mL)/Streptomycin (100 μg/mL), 1× nonessential amino acids, and 250 μg/mL G418 (“Geneticin”). They were all available through Life Technologies (Bethesda, Md.). The cells were plated at 0.5-1.0×10^4 cells/well in the 96 well plates and incubated for 24 hrs before adding nucleoside analogs. Then the compounds were added to the cells to achieve a final concentration of 5 or 50 μM. Luciferase activity was measured 48-72 hours later by adding a lysis buffer and the substrate (Catalog number Glo-lysis buffer E2661 and Bright-Glo leuciferase system E2620 Promega, Madison, Wis.). Cells should not be too confluent during the assay. Percent inhibition of replication was plotted relative to no compound control. Under the same condition, cytotoxicity of the compounds was determined using cell proliferation reagent, WST-1 (Roche, Germany). The compounds showing potent antiviral activities, but no significant cytotoxicities were chosen for further evaluation. For these determinations, a 10-point, 2-fold serial dilution for each compound was used which spans a concentration range of 1000 fold. IC50 and TC50 values were calculated by fitting % inhibition at each concentration to the following equation: % inhibition=100%/[(IC50/[I])^b+1] where b is Hill's coefficient.
The % inhibition at a particular concentration was determined using the following equation: % Inhibition=100−[100*(Lum with inhibitor-bg)/(Lum with no inhibitor-bg)] where bg was the background with no replicon cell, and Lum was the luminescence intensity of the reporter luciferase gene.

With `Cc1nc(C)c(-c2ccc3cc(-c4c(C5CCCCC5)cc(C(=O)O)n4CC(=O)O)ccc3n2)s1` [Compound 30, 1-(carboxymethyl)-4-cyclohexyl-5-(2-(2,4-dimethylthiazol-5-yl)quinolin-6-yl)-1H-pyrrole-2-carboxylic acid] as the compound, how does the inhibition at 33 µM read?
The inhibition at 33 µM was 22%.

`Cc1nc(C)c(-c2ccc3cc(-c4c(C5CCCCC5)cc(C(=O)O)n4CC(=O)OC(C)(C)C)ccc3n2)s1` [Compound 31, 1-((tert-butoxycarbonyl)methyl)-4-cyclohexyl-5-(2-(2,4-dimethylthiazol-5-yl)quinolin-6-yl)-1H-pyrrole-2-carboxylic acid] was tested. Which inhibition at 33 µM did it give?
Its inhibition at 33 µM is 48%.

For `Cc1nc(C)c(-c2ccc3cc(-c4c(C5CCCCC5)cc(C(=O)O)n4CC(=O)N4CCOCC4)ccc3n2)s1` [Compound 32, 4-cyclohexyl-5-(2-(2,4-dimethylthiazol-5-yl)quinolin-6-yl)-1-(2-morpholino-2-oxoethyl)-1H-pyrrole-2-carboxylic acid], which inhibition at 33 µM is on record?
The inhibition at 33 µM was 57%.

Which inhibition at 33 µM does the source give for `Cc1nc(C)c(-c2ccc3cc(-c4c(C5CCCCC5)cc(C(=O)NCC(=O)O)n4CC(=O)N4CCOCC4)ccc3n2)s1` [Compound 33, 2-(4-cyclohexyl-5-(2-(2,4-dimethylthiazol-5-yl)quinolin-6-yl)-1-(2-morpholino-2-oxoethyl)-1H-pyrrole-2-carboxamido)acetic acid] here?
Its inhibition at 33 µM is 17%.
